According to patent US10874669B2 (WAYNE STATE UNIVERSITY, priority 2018, dated 2020):
Where two headings read alike, the source gives them in different places.

Experiments:
PC12 cells [1] = experiment: DCFDA fluorescence assay of intracellular ROS induced by 6-OHDA; assay type: cell-based, rat; conditions: 20 μM, 24 h pretreatment, then 75 μM 6-OHDA 1 h
Description: Experimental detection of reactive oxygen species (ROS) produced by 6-OHDA was carried out by DCFDA assay. 6-OHDA, a well known neurotoxin, produces oxidative stress similar to what is observed in PD and the mechanism of neurotoxicity of 6-OHDA takes place via its auto-oxidation and subsequent generation of hydrogen peroxide. DCFDA is a non-fluorogenic dye but in the presence of ROS, it is oxidized to produce DCF which produces florescence. We have previously shown that 6-OHDA causes cell death in a dose-dependent manner. We chose 75 μM 6-OHDA as we have shown that this dose induces 40-50% cell death. […] However, the test compounds could dose dependently decrease the production of ROS induced by 6-OHDA (75 μM) in PC12 cells. In this regard, highest dose of all the three compounds was the most efficacious in producing significant antioxidant effect.
PC12 cells (ATCC CRL1721.1, Manassas, Va., USA), a rat adrenal pheochromocytoma cell line, were cultured in T-75 flasks (Greiner Bio One, Frickenhausen, Germany) and maintained in RPMI 1640 medium supplemented with 10% heat inactivated horse serum, 5% fetal bovine sérum, 100 U/ml penicillin, and 100 μg/mL streptomycin at 37° C. in 95% air/5% CO2. […]
PC12 cells were plated at 30,000 cells/well density in 100 μL media in 96-well black plates and incubated at 37° C. under 5% CO2 atmosphere for 24 h. […] After incubation for 1 h, the fluorescence was measured using spectrophotometer fluorescence generated microplate reader (Biotek Epoch, Winooski, Vt., USA) at excitation 497 nm and emission at 527 nm. […] The specific fluorescence emission was calculated after subtraction of the DCFDA untreated control cells from the DCFDA treated cells for both the background and 1 h treatment conditions. This was followed by the division of the 1 h treatment data by the background activity which was determined from vials before treatment with 6-OHDA, to derive the final data point.

human DA D3 receptors = human DA D3 receptors (Homo sapiens (Human), UniProt P35462); experiment: [35S]GTPγS binding stimulation, human D3 receptors in CHO cells; assay type: biochemical; conditions: for Emax: compared with maximum stimulation by full agonist DA
PC12 cells [2] = experiment: MTT neuroprotection against 6-OHDA-induced toxicity; assay type: cell-based, rat; conditions: for concentration of greatest protective effect: 24 h pretreatment, then 75 μM 6-OHDA 24 h; for increase in cell survival compared to 6-OHDA treated alone: at concentration of greatest protective effect, 75 μM 6-OHDA
Description: To investigate the neuroprotection property of the selected target molecules (−)-91b, (−)-95a and (−)-95c against 6-OHDA-induced cytotoxicity, we used dopaminergic rat adrenal Pheochromocytoma PC12 cells. As reported above, treatment of PC12 cells with 6-OHDA at 75 μM for 24 h produced ˜50% loss in cells viability and this concentration was used in subsequent experiments. […] However, (−)-95a produced some incremental toxicity starting at 20 μM dose (FIG. 4B). The potential neuroprotective effects of (−)-91b, (−)-95a and (−)-95c against 6-OHDA-induced toxicity were evaluated next. […] At those concentration both drugs increased cell survival by ˜20% compared to 6-OHDA (75 μM) treated alone (FIGS. 4D and 4F), indicating neuroprotective effect of these drugs. […] This could be due to the fact that the compound by itself produced toxicity to the cells at doses ≥20 μM and the presence of 6-OHDA enhanced the toxicity (FIG. 4B).
PC12 cells (ATCC CRL1721.1, Manassas, Va., USA), a rat adrenal pheochromocytoma cell line, were cultured in T-75 flasks (Greiner Bio One, Frickenhausen, Germany) and maintained in RPMI 1640 medium supplemented with 10% heat inactivated horse serum, 5% fetal bovine serum, 100 U/ml penicillin, and 100 μg/mL streptomycin at 37° C. in 95% air/5% CO2. Stock solutions of (−)-91b, (−)-95a, (−)-95c, and 6-hydroxydopamine (6-OHDA) were prepared in dimethylsulfoxide (DMSO) and aliquots were stored at −20° C. and −80° C., respectively. For all experiments assessing neuroprotective effects of the test compounds, PC12 cells were pretreated with indicated concentrations of (−)-91b, (−)-95a and (−)-95c for 24 h and then treated with 75 μM 6-OHDA for another 24 h. The control cells were treated with above media containing 0.01% DMSO only.
PC12 cells were plated at 17000 cells/well density in 100 μL of media in 96-well plates and incubated at 37° C. under 5% CO2 atmosphere for 24 h. Cells were treated with varying concentrations of the test compounds to determine their direct effect on cell viability. Neuroprotection experiments were conducted by treating cells for 24 h with varying concentrations of (−)-91b, (−)-95a and (−)-95c. Then the drug containing media was replaced with fresh culture media followed by treatment with 75 μM of 6-OHDA alone for an additional 24 h under the same condition. After incubation for 24 h, 5 mg/mL MTT solution (prepared in Dulbecco's phosphate-buffered saline) was added to the cells (to a final concentration of 0.5 mg/mL) and the plates were further incubated at 37° C. in 95% air/5% CO2 atmosphere for 3-4 h to produce dark-blue formazan crystals. Afterward, the plates were centrifuged at 450 g for 10 min and the supernatants were carefully removed. Formazan crystals were dissolved by adding 100 μL of methanol:DMSO (1:1) mixture to each well and shaking gently at 400 rpm for 30 min at room temperature on a Thermomix R shaker (Eppendorf, Hamburg, Germany). The absorbance was measured on a microplate reader (Biotek Epoch, Winooski, Vt., USA) at 570 nm with background correction performed at 690 nm. Data from at least three experiments were analyzed using GraphPad software (version 6, San Diego, Calif., USA). Cell viability was defined as […] compared to untreated controls.

human DA D3 receptors, sequence (P35462 whole entry): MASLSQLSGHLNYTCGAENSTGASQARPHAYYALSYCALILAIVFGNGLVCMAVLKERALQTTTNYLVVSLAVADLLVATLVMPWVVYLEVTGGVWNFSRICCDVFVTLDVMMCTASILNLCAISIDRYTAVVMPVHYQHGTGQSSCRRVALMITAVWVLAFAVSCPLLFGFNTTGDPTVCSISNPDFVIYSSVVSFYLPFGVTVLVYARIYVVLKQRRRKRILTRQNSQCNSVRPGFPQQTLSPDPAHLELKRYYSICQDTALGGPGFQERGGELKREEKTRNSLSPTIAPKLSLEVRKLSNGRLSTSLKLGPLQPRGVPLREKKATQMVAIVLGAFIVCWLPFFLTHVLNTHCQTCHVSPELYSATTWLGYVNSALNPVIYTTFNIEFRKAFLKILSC

Structure (SMILES)	reduction in ROS (PC12 cells [1]) [%]	EC50 (human DA D3 receptors; CHO cells, read-out: EC50 (GTPγS), D3) [nM]	Emax (human DA D3 receptors) [%]	concentration of greatest protective effect (PC12 cells [2]) [µM]	increase in cell survival compared to 6-OHDA treated alone (PC12 cells [2]) [%]	EC50 (human DA D3 receptors) [nM]
CCCN(CCN1CCN(c2ccc3[nH]c4ccccc4c3c2)CC1)[C@H]1CCc2nc(N)sc2C1 [(−)-91b, (S)—N^6-(2-(4-(9H-carbazol-3-yl)piperazin-1-yl)ethyl)-N^6-propyl-4,5,6,7-tetrahydrobenzo[d]thiazole-2,6-diamine]	76	0.96	87 to 93	5	~20	
CCCN(CCN1CCN(c2ccc3c(c2)[nH]c2ccccc23)CC1)[C@H]1CCc2c(O)cccc2C1 [Compound (−)-95a, (S)-6-((2-(4-(9H-carbazol-2-yl)piperazin-1-yl)ethyl)(propyl)amino)-5,6,7,8-tetrahydronaphthalen-1-ol]	93		85 to 92	10	15	0.23
